The target in experiment [1] is T1, von Hippel-Lindau disease tumor suppressor/Estrogen receptor (Homo sapiens, UniProt P03372+P40337). Description: Induction of VHL E3 ligase mediated ERalpha degradation in human MCF7 cells assessed as downregulation of ERalpha expression by cell-based immunofluorescence assay.
Target sequence in this assay (P40337 whole entry, one chain of several): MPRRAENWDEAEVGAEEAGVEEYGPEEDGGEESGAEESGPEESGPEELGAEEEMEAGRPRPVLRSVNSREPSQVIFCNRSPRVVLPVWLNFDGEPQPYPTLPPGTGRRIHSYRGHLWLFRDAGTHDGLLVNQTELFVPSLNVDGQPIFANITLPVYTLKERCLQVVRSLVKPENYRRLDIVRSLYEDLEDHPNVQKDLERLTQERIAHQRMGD
For experiment [2], the target named is T1, von Hippel-Lindau disease tumor suppressor/Estrogen receptor. Description: Induction of VHL E3 ligase mediated ERalpha degradation in human MCF7 cells at 0.3 uM by cell-based immunofluorescence assay.
Target sequence in this assay (P40337 whole entry, looked up, one chain of several): as the sequence (P40337 whole entry, one chain of several) above
Another experiment concerns the target T2, Estrogen receptor (Homo sapiens, UniProt P03372).
T2 sequence (P03372 whole entry): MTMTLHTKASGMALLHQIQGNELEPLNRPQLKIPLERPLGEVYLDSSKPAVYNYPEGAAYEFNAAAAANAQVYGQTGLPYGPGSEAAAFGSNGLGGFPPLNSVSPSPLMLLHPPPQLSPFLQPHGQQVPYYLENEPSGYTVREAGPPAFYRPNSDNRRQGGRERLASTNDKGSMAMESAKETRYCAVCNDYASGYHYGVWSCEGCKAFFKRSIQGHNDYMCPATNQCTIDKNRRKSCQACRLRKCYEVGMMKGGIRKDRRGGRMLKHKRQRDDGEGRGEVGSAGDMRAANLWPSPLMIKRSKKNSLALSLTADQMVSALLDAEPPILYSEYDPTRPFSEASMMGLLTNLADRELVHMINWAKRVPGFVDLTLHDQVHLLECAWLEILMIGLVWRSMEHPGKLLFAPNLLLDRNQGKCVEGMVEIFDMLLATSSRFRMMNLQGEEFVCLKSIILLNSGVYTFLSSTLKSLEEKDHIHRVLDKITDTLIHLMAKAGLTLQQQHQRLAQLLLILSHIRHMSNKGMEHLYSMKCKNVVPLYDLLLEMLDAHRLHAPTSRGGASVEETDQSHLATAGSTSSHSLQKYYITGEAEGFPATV
The experiment in a line: Displacement of fluorescent ligand from human recombinant GST-tagged ER-alpha ligand binding domain (307 to 554 residues) incubated for 15 mins by TR-FRET based competitive assay. On the technique in general: In TR-FRET formats the signal depends on donor and acceptor labels being close together.

Some results are limits rather than exact numbers.

By IC50 is commonly meant the concentration that gives 50% inhibition. For the molecule `Cc1ncsc1-c1ccc([C@H](C)NC(=O)[C@@H]2C[C@@H](O)CN2C(=O)[C@@H](NC(=O)COCCOCCOCCOc2cc(F)c([C@@H]3c4[nH]c5ccccc5c4C[C@@H](C)N3CC(C)(C)F)c(F)c2)C(C)(C)C)cc1`, the IC50 in experiment [1] is 300 pM. In experiment [2], this molecule showed an Activity of over 90%.

Turning to `C[C@]12CC[C@@H]3c4ccc(O)cc4C[C@@H](CCCCCCCCC[S+]([O-])CCCC(F)(F)C(F)(F)F)[C@H]3[C@@H]1CC[C@@H]2O` (some centres not stated), the Activity in experiment [2] came out at 100%.

In the case of `Cc1ncsc1-c1ccc(CNC(=O)[C@@H]2C[C@@H](O)CN2C(=O)[C@@H](NC(=O)COCCCOCCOc2cc(F)c([C@@H]3c4[nH]c5ccccc5c4C[C@@H](C)N3CC(C)(C)F)c(F)c2)C(C)(C)C)cc1`, the IC50 in experiment [1] worked out at 400 pM. Further, the Activity in experiment [2] was over 90%.

On to `Cc1ncsc1-c1ccc([C@H](C)NC(=O)[C@@H]2C[C@@H](O)CN2C(=O)[C@@H](NC(=O)COCCOCCCCCOc2cc(F)c([C@@H]3c4[nH]c5ccccc5c4C[C@@H](C)N3CC(C)(C)F)c(F)c2)C(C)(C)C)cc1`, for which the IC50 on Estrogen receptor was determined as 500 pM; in experiment [1], 600 pM. The Activity in experiment [2] is over 90%.

For `Cc1ncsc1-c1ccc(CNC(=O)[C@@H]2C[C@@H](O)CN2C(=O)[C@@H](NC(=O)COCCOCCC(F)(F)CCOc2cc(F)c([C@@H]3c4[nH]c5ccccc5c4C[C@@H](C)N3CC(C)(C)F)c(F)c2)C(C)(C)C)cc1`, in experiment [1], the IC50 was 800 pM. Further, the Activity in experiment [2] is over 90%.

For the molecule `Cc1ncsc1-c1ccc(CNC(=O)[C@@H]2C[C@@H](O)CN2C(=O)[C@@H](NC(=O)COCCCOCCCOc2cc(F)c([C@@H]3c4[nH]c5ccccc5c4C[C@@H](C)N3CC(C)(C)F)c(F)c2)C(C)(C)C)cc1`, the IC50 in experiment [1] lay within 300 to 400 pM. The molecule further displayed an Activity in experiment [2] of over 90%.
